Earlier results as cited in patent publication US20110311631A1, “CONTROLLED RELEASE PHARMACEUTICAL COMPOSITION WITH RESISTANCE AGAINST THE INFLUENCE OF ETHANOL EMPLOYING A COATING COMPRISING A POLYMER MIXTURE AND EXCIPIENTS” (EVONIK RÖHM GMBH, priority 2009, published 2011).
Structures can show the parent of a compound that is named as a salt. Where two headings read alike, the source gives them in different places.

Conditions: USP classification, between 15° C. and 25° C.

COc1ccc([C@@H]2Sc3ccccc3N(CCN(C)C)C(=O)[C@@H]2OC(C)=O)cc1 [Diltiazem HCl]
Solubility in water: Freely soluble (from 1 to 10) | Solubility in ethanol (HCl): Sparingly soluble (more than 30 to 100) | Solubility in ethanol (listed as diltiazem, HCl): sparingly soluble

NC(=O)N1c2ccccc2C=Cc2ccccc21 [Carbamazepine]
Solubility in ethanol: Soluble (more than 10 to 30) | Solubility in water: Practically insoluble (more than 10.000)

COCCc1ccc(OCC(O)CNC(C)C)cc1 (centres unmarked) [Metoprolol succinate]
Solubility in ethanol: Sparingly soluble (more than 30 to 100) | Solubility in water: Freely soluble (from 1 to 10) | Solubility in ethanol (listed as metoprolol): sparingly soluble

Cn1c(=O)c2[nH]cnc2n(C)c1=O [Theophylline]
Solubility in ethanol: Sparingly soluble (more than 30 to 100) | Solubility in water: Slightly soluble (more than 100 to 1000) | Solubility in ethanol (listed as theophyllin): sparingly soluble

C=CCN1CC[C@]23c4c5ccc(O)c4O[C@H]2C(=O)CC[C@@]3(O)[C@H]1C5 [Naloxone]
Solubility in ethanol: Slightly soluble (more than 100 to 1000) | Solubility in water: Soluble (more than 10 to 30) | Solubility in ethanol (listed as naloxone): slightly soluble
